The target in one experiment is T1, human AXL (473-end) (Homo sapiens, UniProt P30530).
T1 construct: human AXL (473-end); purchased SignalChem, Canada
T1 sequence (P30530 473-894 limits assumed): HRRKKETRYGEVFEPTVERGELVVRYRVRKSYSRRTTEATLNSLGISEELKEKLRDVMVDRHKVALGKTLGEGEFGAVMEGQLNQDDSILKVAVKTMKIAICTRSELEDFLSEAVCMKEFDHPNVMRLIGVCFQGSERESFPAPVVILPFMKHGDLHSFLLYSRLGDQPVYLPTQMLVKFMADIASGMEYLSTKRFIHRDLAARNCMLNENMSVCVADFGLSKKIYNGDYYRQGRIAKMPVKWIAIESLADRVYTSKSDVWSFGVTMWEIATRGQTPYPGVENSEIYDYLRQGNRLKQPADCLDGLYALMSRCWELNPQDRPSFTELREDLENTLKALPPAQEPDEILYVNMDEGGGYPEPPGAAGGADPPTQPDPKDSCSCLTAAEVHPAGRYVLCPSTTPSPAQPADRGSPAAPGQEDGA
In words: HTRF kinase activity biochemical assay, AXL. The note with it: 10 μM ATP, 30 minutes pre-incubation.

A further experiment addresses T2, human MER (528-end) (Homo sapiens, UniProt Q12866).
T2 construct: human MER (528-end); purchased Camnabio, Japan
T2 sequence (Q12866 528-999 limits assumed): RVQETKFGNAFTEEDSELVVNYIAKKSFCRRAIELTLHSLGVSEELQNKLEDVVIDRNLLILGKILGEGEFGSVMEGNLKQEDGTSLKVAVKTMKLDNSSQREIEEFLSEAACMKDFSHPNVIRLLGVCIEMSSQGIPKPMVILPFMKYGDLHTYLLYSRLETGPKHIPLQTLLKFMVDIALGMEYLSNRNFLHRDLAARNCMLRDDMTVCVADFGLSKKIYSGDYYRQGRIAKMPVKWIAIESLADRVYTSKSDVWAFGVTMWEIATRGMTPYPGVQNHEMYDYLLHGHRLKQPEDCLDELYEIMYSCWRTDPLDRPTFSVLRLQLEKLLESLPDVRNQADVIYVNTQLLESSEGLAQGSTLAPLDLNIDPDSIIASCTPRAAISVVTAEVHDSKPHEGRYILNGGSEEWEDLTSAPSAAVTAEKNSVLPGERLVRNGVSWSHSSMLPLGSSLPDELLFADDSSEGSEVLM
In words: HTRF kinase activity biochemical assay, MER. The note with it: 10 μM ATP, 30 minutes pre-incubation; read-out: HTRF MERTK IC50.

A further experiment deals with T3, human TYRO3 (455-end) (Homo sapiens, UniProt Q06418).
T3 construct: TYRO3 (455-end); purchased SignalChem, Canada
T3 sequence (Q06418 455-890 limits assumed): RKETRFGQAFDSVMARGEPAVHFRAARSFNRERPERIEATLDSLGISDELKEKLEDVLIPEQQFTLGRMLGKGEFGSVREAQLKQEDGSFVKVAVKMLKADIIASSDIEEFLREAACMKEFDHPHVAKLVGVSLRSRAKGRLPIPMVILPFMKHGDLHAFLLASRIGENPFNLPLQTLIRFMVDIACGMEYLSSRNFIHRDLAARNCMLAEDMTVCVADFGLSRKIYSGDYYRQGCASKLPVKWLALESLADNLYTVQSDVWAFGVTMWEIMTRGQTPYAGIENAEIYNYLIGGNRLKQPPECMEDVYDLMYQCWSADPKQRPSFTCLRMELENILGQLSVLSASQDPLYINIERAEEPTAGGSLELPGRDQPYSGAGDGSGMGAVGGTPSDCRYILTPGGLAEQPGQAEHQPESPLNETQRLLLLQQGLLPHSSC
In words: HTRF kinase activity biochemical assay, TYRO3. The note with it: 10 μM ATP, 30 minutes pre-incubation; read-out: HTRF TYRO IC50.

Structures are written as SMILES.

Take `Cn1cc(-c2cnc(N)c(C(=O)N[C@H]3CCC[C@@H]3OCc3ccc(-c4cccc5cc[nH]c45)cc3)c2)cn1` [Example 29, 2-amino-N-[(1S,2S)-2-{[4-(1H-indol-7-yl)phenyl]methoxy}cyclopentyl]-5-(1-methyl-1H-pyrazol-4-yl)pyridine-3-carboxamide]: the IC50 against human AXL (473-end) was 100 to 1000 nM; on human MER (528-end), 10 to 100 nM; on human TYRO3 (455-end), > 1000 nM.

For the molecule `Cn1ccc(-c2cnc(N)c(C(=O)N[C@H]3CCC[C@@H]3OCc3ccc(-c4ccc5c(c4)C(C)(C)CN5C4CCN(CCO)CC4)cc3)c2)cc1=O` [Example 30, 6-amino-N-{(1S,2S)-2-[(4-{1-[1-(2-hydroxyethyl)piperidin-4-yl]-3,3-dimethyl-2,3-dihydro-1H-indol-5-yl}phenyl)methoxy]cyclopentyl}-1′-methyl-2′-oxo-1′,2′-dihydro[3,4′-bipyridine]-5-carboxamide], the IC50 is < 10 nM against human AXL (473-end), < 10 nM at human MER (528-end) and 10 to 100 nM on human TYRO3 (455-end).

Regarding `CC1(C)CN(C2CCN(CCO)CC2)c2ccc(-c3ccc(CO[C@H]4CCC[C@@H]4NC(=O)c4cc(-c5ccc(F)nc5)cnc4N)cc3)cc21` [Example 31, 6-amino-6′-fluoro-N-{(1S,2S)-2-[(4-{1-[1-(2-hydroxyethyl)piperidin-4-yl]-3,3-dimethyl-2,3-dihydro-1H-indol-5-yl}phenyl)methoxy]cyclopentyl}[3,3′-bipyridine]-5-carboxamide], the IC50 is < 10 nM against human AXL (473-end), < 10 nM on human MER (528-end) and 10 to 100 nM on human TYRO3 (455-end).

In the case of `Cn1cc(-c2cnc(N)c(C(=O)N[C@H]3COC[C@@H]3OCc3ccc(-c4ccc5c(c4)C(C)(C)CN5C4CCN(CCO)CC4)cc3)c2)cn1` [Example 32, 2-amino-N-{(3S,4R)-4-[(4-{1-[1-(2-hydroxyethyl)piperidin-4-yl]-3,3-dimethyl-2,3-dihydro-1H-indol-5-yl}phenyl)methoxy]oxolan-3-yl}-5-(1-methyl-1H-pyrazol-4-yl)pyridine-3-carboxamide], the half-maximal inhibitory concentration (IC50) against human AXL (473-end) is < 10 nM; on human MER (528-end), < 10 nM; at human TYRO3 (455-end), 10 to 100 nM.

With `CC1(C)CN(C2CCN(CCO)CC2)c2ccc(-c3ccc(CO[C@H]4COC[C@@H]4NC(=O)c4cc(-c5ccc(F)nc5)cnc4N)cc3)cc21` [Example 35, 6-amino-6′-fluoro-N-{(3S,4R)-4-[(4-{1-[1-(2-hydroxyethyl)piperidin-4-yl]-3,3-dimethyl-2,3-dihydro-1H-indol-5-yl}phenyl)methoxy]oxolan-3-yl}[3,3′-bipyridine]-5-carboxamide], the values for the IC50 against human AXL (473-end), at human MER (528-end) and at human TYRO3 (455-end) were 10 to 100 nM, < 10 nM and 100 to 1000 nM, respectively.

As for `Cn1cc(-c2cnc(N)c(C(=O)N[C@H]3CCC[C@@H]3OCc3ccc(-c4ccc5c(c4)C(C)(C)CN5C4CCN(CCO)CC4)cc3)c2)ccc1=O` [Example 36, 6-amino-N-{(1S,2S)-2-[(4-{1-[1-(2-hydroxyethyl)piperidin-4-yl]-3,3-dimethyl-2,3-dihydro-1H-indol-5-yl}phenyl)methoxy]cyclopentyl}-1′-methyl-6′-oxo-1′,6′-dihydro[3,3′-bipyridine]-5-carboxamide], the IC50 was < 10 nM on human AXL (473-end), < 10 nM at human MER (528-end) and 10 to 100 nM on human TYRO3 (455-end).

With `CN1C[C@H](NC(=O)c2cc(-c3ccc(F)nc3)cnc2N)[C@@H](OCc2ccc(-c3ccc4c(c3)C(C)(C)CN4C3CCN(CCO)CC3)cc2)C1` [Example 37, 6-amino-6′-fluoro-N-{(3S,4S)-4-[(4-{1-[1-(2-hydroxyethyl)piperidin-4-yl]-3,3-dimethyl-2,3-dihydro-1H-indol-5-yl}phenyl)methoxy]-1-methylpyrrolidin-3-yl}[3,3′-bipyridine]-5-carboxamide], the 50% inhibitory concentration (IC50) at human AXL (473-end) was 10 to 100 nM; at human MER (528-end), < 10 nM; at human TYRO3 (455-end) it was 100 to 1000 nM.

For the molecule `CC1(C)CN(C2CCN(CCO)CC2)c2ccc(-c3ccc(CO[C@H]4CCC[C@@H]4NC(=O)c4nc(-c5ccc(F)nc5)cnc4N)cc3)cc21` [Example 41, 3-amino-6-(6-fluoropyridin-3-yl)-N-{(1S,2S)-2-[(4-{1-[1-(2-hydroxyethyl)piperidin-4-yl]-3,3-dimethyl-2,3-dihydro-1H-indol-5-yl}phenyl)methoxy]cyclopentyl}pyrazine-2-carboxamide], the 50% inhibitory concentration (IC50) was 10 to 100 nM against human AXL (473-end), < 10 nM on human MER (528-end) and 100 to 1000 nM on human TYRO3 (455-end).

For `Cc1nn(C)cc1-c1cnc(N)c(C(=O)N[C@H]2COC[C@@H]2OCc2ccc(-c3ccc4c(c3)C(C)(C)CN4C3CCN(CCO)CC3)cc2)c1` [Example 42, 2-amino-5-(1,3-dimethyl-1H-pyrazol-4-yl)-N-{(3S,4R)-4-[(4-{1-[1-(2-hydroxyethyl)piperidin-4-yl]-3,3-dimethyl-2,3-dihydro-1H-indol-5-yl}phenyl)methoxy]oxolan-3-yl}pyridine-3-carboxamide], the values for the half-inhibitory concentration (IC50) against human AXL (473-end), on human MER (528-end) and at human TYRO3 (455-end) were < 10 nM, < 10 nM and 10 to 100 nM, respectively.

As to `Cn1cc(-c2cnc(N)c(C(=O)N[C@H]3CCC[C@@H]3OCc3ccc(-c4ccc5c(c4)C4(CCOC4)CN5C4CCN(CCO)CC4)cc3)c2)cn1` (stereo partly drawn) [Example 43, 2-amino-N-{(1S,2S)-2-[(4-{1-[1-(2-hydroxyethyl)piperidin-4-yl]-1,2-dihydrospiro[indole-3,3′-oxolan]-5-yl}phenyl)methoxy]cyclopentyl}-5-(1-methyl-1H-pyrazol-4-yl)pyridine-3-carboxamide], the IC50 against human AXL (473-end) was 100 to 1000 nM; at human MER (528-end), < 10 nM; at human TYRO3 (455-end), 100 to 1000 nM.

On to `CC1(C)CN(C2CCN(CCO)CC2)c2ccc(-c3ccc(CO[C@H]4COC[C@@H]4NC(=O)c4cc(-c5cncc(F)c5)cnc4N)cc3)cc21` [Example 44, 6-amino-5′-fluoro-N-{(3S,4R)-4-[(4-{1-[1-(2-hydroxyethyl)piperidin-4-yl]-3,3-dimethyl-2,3-dihydro-1H-indol-5-yl}phenyl)methoxy]oxolan-3-yl}[3,3′-bipyridine]-5-carboxamide], for which the concentration for half-maximal inhibition (IC50) is 100 to 1000 nM on human AXL (473-end), < 10 nM at human MER (528-end) and 100 to 1000 nM on human TYRO3 (455-end).

Take `Cn1cc(-c2cnc(N)c(C(=O)N[C@H]3COC[C@@H]3OCc3ccc(-c4ccc5c(c4)CC[C@@H]5N4CCN(CCO)CC4)cc3)c2)cn1` [Example 45, 2-amino-N-{(3S,4R)-4-[(4-{(1S)-1-[4-(2-hydroxyethyl)piperazin-1-yl]-2,3-dihydro-1H-inden-5-yl}phenyl)methoxy]oxolan-3-yl}-5-(1-methyl-1H-pyrazol-4-yl)pyridine-3-carboxamide]: the half-inhibitory concentration (IC50) on human AXL (473-end) is < 10 nM; at human MER (528-end), < 10 nM; at human TYRO3 (455-end), 100 to 1000 nM.

For `Cc1c(-c2cnc(N)c(C(=O)N[C@H]3COC[C@@H]3OCc3ccc(-c4ccc5c(c4)C(C)(C)CN5C4CCN(CCO)CC4)cc3)c2)cnn1C` [Example 47, 2-amino-5-(1,5-dimethyl-1H-pyrazol-4-yl)-N-{(3S,4R)-4-[(4-{1-[1-(2-hydroxyethyl)piperidin-4-yl]-3,3-dimethyl-2,3-dihydro-1H-indol-5-yl}phenyl)methoxy]oxolan-3-yl}pyridine-3-carboxamide], the concentration for half-maximal inhibition (IC50) at human AXL (473-end) is < 10 nM; at human MER (528-end), < 10 nM; on human TYRO3 (455-end), 10 to 100 nM.

In the case of `CC1(C)CN(C2CCN(CCO)CC2)c2ccc(-c3ccc(CO[C@H]4COC[C@@H]4NC(=O)c4cc(-c5cccnc5F)cnc4N)cc3)cc21` [Example 49, 6-amino-2′-fluoro-N-{(3S,4R)-4-[(4-{1-[1-(2-hydroxyethyl)piperidin-4-yl]-3,3-dimethyl-2,3-dihydro-1H-indol-5-yl}phenyl)methoxy]oxolan-3-yl}[3,3′-bipyridine]-5-carboxamide], the half-maximal inhibitory concentration (IC50) at human AXL (473-end) was < 10 nM; at human MER (528-end), < 10 nM; on human TYRO3 (455-end), 100 to 1000 nM.

The values are drawn from patent publication US20260146035A1, “FUSED BICYCLIC COMPOUNDS AND THEIR USE AS MER AND AXL INHIBITORS” (DONG-A ST CO., LTD., priority 2022, published 2026).
